ChEMBL document CHEMBL5346961, “Discovery and Evaluation of 3-Quinoxalin Urea Derivatives as Potent, Selective, and Orally Available ATM Inhibitors Combined with Chemotherapy for the Treatment of Cancer via Goal-Oriented Molecule Generation and Virtual Screening” (J Med Chem, 2023)
The source made the active and inactive calls. The rule behind the calls is not given here.

Experiments:
HCT-116 [1] = experiment: Inhibition of colony formation in human HCT-116 cells preincubated for 1 hr followed by exposure to 2 Gy gamma irradiation and measured after 1 week by crystal violet staining based […] assay; assay type: functional, cell-based; details: HCT-116, light or radiation study
HCT-116 [2] = experiment: Induction of apoptosis in human HCT-116 cells assessed as late apoptotic cells at 2 uM measured after 2 days by AnnexinV-FITC/PI staining based analysis (reference value: 12.2%); assay type: functional; details: time 2 day
HCT-116 [3] = experiment: Induction of apoptosis in human HCT-116 cells assessed as early apoptotic cells at 1 uM measured after 2 days in presence of irinotecan by AnnexinV-FITC/PI staining based analysis (reference value: 14.4%); assay type: functional; details: time 2 day
[4] = Toxicity in BALB/c nude mouse assessed as drug tolerance at 20 to 40 mg/kg, po administered once daily for 3 days weekly after irinotecan post treatment for 21 days in presence of irinotecan; assay type: organism-based; details: in vivo, 504 h, dose 20-40 mg/kg, time 21 day
SW-620 [5] = experiment: Antiproliferative activity against human SW620 cells assessed as reduction in cell viability incubated for 6 days by MTT assay; assay type: functional, cell-based; details: SW-620, 144 h
[6] = Volume of distribution at steady state in Balb/C mouse at 10 mg/kg,iv measured upto 48 hrs by LC-MS/MS analysis; assay type: ADME, organism-based; details: in vivo, read-out: Vdss
HCT-116 [7] = experiment: Inhibition of colony formation in human HCT-116 cells at 0.01 uM preincubated for 1 hr followed by exposure to 2 Gy gamma irradiation and measured after 1 week by crystal violet staining based […] assay relative to control; assay type: functional; details: HCT-116, light or radiation study, time 169 hrs
HCT-116 [8] = experiment: Induction of apoptosis in human HCT-116 cells assessed as late apoptotic cells at 1 uM measured after 2 days by AnnexinV-FITC/PI staining based analysis (reference value: 12.2%); assay type: functional; details: time 2 day
[9] = biological target: Serine-protein kinase ATM (Homo sapiens, UniProt Q13315); experiment: Inhibition of ATM (unknown origin) preincubated with compound for 30 mins followed by substrate addition and measured after 2 hrs by HTRF method
SW-620 [10] = experiment: Antitumor activity against human SW620 cells xenografted in BALB/c nude mouse model assessed as tumor growth inhibition at 20 mg/kg, po administered once daily for 3 days weekly after irinotecan post treatment for 21 days by caliper method relative to control; assay type: functional; details: SW-620, 504 h, time 21 day, read-out: TGI
[11] = AUC (0 to t) in Balb/C mouse at 10 mg/kg,po measured upto 48 hrs by LC-MS/MS analysis; assay type: ADME, organism-based; design: dose 10 mg/kg, time < 48 hrs, route po; details: in vivo
HCT-116 [12] = experiment: Induction of apoptosis in human HCT-116 cells assessed as necrotic cells at 1 uM measured after 2 days in presence of irinotecan by AnnexinV-FITC/PI staining based analysis (reference value: 0.64%); assay type: functional; details: time 2 day
HCT-116 [13] = experiment: Induction of apoptosis in human HCT-116 cells assessed as early apoptotic cells at 2 uM measured after 2 days in presence of irinotecan by AnnexinV-FITC/PI staining based analysis (reference value: 14.4%); assay type: functional; details: time 2 day
HCT-116 [14] = experiment: Induction of DNA damage in human HCT-116 cells assessed as reduction in ATM phosphorylation at S1981 residue at 0.5 to 2 uM measured after 4 hrs by Western blot analysis; assay type: functional, cell-based; details: dose 0.5-2 µM
[15] = Clearance in Balb/C mouse at 10 mg/kg,iv measured upto 48 hrs by LC-MS/MS analysis; assay type: ADME, organism-based; details: in vivo
HCT-116 [16] = experiment: Induction of cell cycle arrest in human HCT-116 cells assessed as increase in accumulation of cells at G2/M phase at 1 to 4 uM measured after 48 hrs in presence of irinotecan by propidium iodide staining based flow cytometry analysis; assay type: functional; details: dose 1-4 µM
HCT-116 [17] = experiment: Induction of apoptosis in human HCT-116 cells assessed as late apoptotic cells at 4 uM measured after 2 days by AnnexinV-FITC/PI staining based analysis (reference value: 12.2%); assay type: functional; details: time 2 day
[18] = Half life in Balb/C mouse at 10 mg/kg,iv measured upto 48 hrs by LC-MS/MS analysis; assay type: ADME, organism-based; details: in vivo
[19] = biological target: T1, DNA-dependent protein kinase catalytic subunit (Homo sapiens, UniProt P78527); experiment: Inhibition of DNA-PK (unknown origin) in presence of [gamma33P-ATP] by scintillation counting method
MCF7 [20] = experiment: Synergistic antiproliferative activity against human MCF7 cells assessed as fold increase in irinotecan IC50 at 200 nM measured after 6 days by MTT assay; assay type: functional; details: time 6 day
HCT-116 [21] = experiment: Induction of apoptosis in human HCT-116 cells assessed as necrotic cells at 2 uM measured after 2 days by AnnexinV-FITC/PI staining based analysis (reference value: 0.64%); assay type: functional; details: time 2 day
[22] = biological target: T1, DNA-dependent protein kinase catalytic subunit; experiment: Inhibition of DNA-PK (unknown origin) at 1 uM in presence of [gamma33P-ATP] by scintillation counting method relative to control
HCT-116 [23] = experiment: Induction of DNA damage in human HCT-116 cells assessed as decrease in gammaH2AX fluorescence intensity measured after 6 hrs in presence of irinotecan by fluorescence microscopic analysis; assay type: functional, cell-based; details: dose 0.5-2 µM
[24] = Oral bioavailability in Balb/C mouse at 10 mg/kg measured upto 48 hrs by LC-MS/MS analysis; assay type: ADME, organism-based; details: in vivo
MCF7 [25] = experiment: Synergistic antiproliferative activity against human MCF7 cells assessed as combination index at […] measured after 6 days in presence etoposide by MTT assay; assay type: functional; details: dose lower 100 µM; time 6 day
HCT-116 [26] = experiment: Induction of apoptosis in human HCT-116 cells assessed as necrotic cells at 4 uM measured after 2 days in presence of irinotecan by AnnexinV-FITC/PI staining based analysis (reference value: 0.64%); assay type: functional; details: time 2 day
HCT-116 [27] = experiment: Induction of apoptosis in human HCT-116 cells assessed as late apoptotic cells at 2 uM measured after 2 days in presence of irinotecan by AnnexinV-FITC/PI staining based analysis (reference value: 12.2%); assay type: functional; details: time 2 day
[28] = Metabolic stability in human liver microsomes assessed as clearance at 1 uM in presence of NADPH-regenerating system by LC-MS/MS analysis; assay type: ADME, Microsome
[29] = Apparent permeability of compound across apical to basal membrane in human Caco-2 cells; assay type: ADME, cell-based
HCT-116 [30] = experiment: Induction of apoptosis in human HCT-116 cells assessed as late apoptotic cells at 4 uM measured after 2 days in presence of irinotecan by AnnexinV-FITC/PI staining based analysis (reference value: 12.2%); assay type: functional; details: time 2 day
[31] = Cmax in Balb/C mouse at 10 mg/kg,po measured upto 48 hrs by LC-MS/MS analysis; assay type: ADME, organism-based; design: dose 10 mg/kg, time < 48 hrs, route po; details: in vivo
HCT-116 [32] = experiment: Induction of apoptosis in human HCT-116 cells assessed as early apoptotic cells at 4 uM measured after 2 days in presence of irinotecan by AnnexinV-FITC/PI staining based analysis (reference value: 14.4%); assay type: functional; details: time 2 day
HCT-116 [33] = experiment: Induction of apoptosis in human HCT-116 cells assessed as early apoptotic cells at 4 uM measured after 2 days by AnnexinV-FITC/PI staining based analysis (reference value: 14.4%); assay type: functional; details: time 2 day
HCT-116 [34] = experiment: Induction of apoptosis in human HCT-116 cells assessed as late apoptotic cells at 1 uM measured after 2 days in presence of irinotecan by AnnexinV-FITC/PI staining based analysis (reference value: 12.2%); assay type: functional; details: time 2 day

T1 sequence (P78527 whole entry): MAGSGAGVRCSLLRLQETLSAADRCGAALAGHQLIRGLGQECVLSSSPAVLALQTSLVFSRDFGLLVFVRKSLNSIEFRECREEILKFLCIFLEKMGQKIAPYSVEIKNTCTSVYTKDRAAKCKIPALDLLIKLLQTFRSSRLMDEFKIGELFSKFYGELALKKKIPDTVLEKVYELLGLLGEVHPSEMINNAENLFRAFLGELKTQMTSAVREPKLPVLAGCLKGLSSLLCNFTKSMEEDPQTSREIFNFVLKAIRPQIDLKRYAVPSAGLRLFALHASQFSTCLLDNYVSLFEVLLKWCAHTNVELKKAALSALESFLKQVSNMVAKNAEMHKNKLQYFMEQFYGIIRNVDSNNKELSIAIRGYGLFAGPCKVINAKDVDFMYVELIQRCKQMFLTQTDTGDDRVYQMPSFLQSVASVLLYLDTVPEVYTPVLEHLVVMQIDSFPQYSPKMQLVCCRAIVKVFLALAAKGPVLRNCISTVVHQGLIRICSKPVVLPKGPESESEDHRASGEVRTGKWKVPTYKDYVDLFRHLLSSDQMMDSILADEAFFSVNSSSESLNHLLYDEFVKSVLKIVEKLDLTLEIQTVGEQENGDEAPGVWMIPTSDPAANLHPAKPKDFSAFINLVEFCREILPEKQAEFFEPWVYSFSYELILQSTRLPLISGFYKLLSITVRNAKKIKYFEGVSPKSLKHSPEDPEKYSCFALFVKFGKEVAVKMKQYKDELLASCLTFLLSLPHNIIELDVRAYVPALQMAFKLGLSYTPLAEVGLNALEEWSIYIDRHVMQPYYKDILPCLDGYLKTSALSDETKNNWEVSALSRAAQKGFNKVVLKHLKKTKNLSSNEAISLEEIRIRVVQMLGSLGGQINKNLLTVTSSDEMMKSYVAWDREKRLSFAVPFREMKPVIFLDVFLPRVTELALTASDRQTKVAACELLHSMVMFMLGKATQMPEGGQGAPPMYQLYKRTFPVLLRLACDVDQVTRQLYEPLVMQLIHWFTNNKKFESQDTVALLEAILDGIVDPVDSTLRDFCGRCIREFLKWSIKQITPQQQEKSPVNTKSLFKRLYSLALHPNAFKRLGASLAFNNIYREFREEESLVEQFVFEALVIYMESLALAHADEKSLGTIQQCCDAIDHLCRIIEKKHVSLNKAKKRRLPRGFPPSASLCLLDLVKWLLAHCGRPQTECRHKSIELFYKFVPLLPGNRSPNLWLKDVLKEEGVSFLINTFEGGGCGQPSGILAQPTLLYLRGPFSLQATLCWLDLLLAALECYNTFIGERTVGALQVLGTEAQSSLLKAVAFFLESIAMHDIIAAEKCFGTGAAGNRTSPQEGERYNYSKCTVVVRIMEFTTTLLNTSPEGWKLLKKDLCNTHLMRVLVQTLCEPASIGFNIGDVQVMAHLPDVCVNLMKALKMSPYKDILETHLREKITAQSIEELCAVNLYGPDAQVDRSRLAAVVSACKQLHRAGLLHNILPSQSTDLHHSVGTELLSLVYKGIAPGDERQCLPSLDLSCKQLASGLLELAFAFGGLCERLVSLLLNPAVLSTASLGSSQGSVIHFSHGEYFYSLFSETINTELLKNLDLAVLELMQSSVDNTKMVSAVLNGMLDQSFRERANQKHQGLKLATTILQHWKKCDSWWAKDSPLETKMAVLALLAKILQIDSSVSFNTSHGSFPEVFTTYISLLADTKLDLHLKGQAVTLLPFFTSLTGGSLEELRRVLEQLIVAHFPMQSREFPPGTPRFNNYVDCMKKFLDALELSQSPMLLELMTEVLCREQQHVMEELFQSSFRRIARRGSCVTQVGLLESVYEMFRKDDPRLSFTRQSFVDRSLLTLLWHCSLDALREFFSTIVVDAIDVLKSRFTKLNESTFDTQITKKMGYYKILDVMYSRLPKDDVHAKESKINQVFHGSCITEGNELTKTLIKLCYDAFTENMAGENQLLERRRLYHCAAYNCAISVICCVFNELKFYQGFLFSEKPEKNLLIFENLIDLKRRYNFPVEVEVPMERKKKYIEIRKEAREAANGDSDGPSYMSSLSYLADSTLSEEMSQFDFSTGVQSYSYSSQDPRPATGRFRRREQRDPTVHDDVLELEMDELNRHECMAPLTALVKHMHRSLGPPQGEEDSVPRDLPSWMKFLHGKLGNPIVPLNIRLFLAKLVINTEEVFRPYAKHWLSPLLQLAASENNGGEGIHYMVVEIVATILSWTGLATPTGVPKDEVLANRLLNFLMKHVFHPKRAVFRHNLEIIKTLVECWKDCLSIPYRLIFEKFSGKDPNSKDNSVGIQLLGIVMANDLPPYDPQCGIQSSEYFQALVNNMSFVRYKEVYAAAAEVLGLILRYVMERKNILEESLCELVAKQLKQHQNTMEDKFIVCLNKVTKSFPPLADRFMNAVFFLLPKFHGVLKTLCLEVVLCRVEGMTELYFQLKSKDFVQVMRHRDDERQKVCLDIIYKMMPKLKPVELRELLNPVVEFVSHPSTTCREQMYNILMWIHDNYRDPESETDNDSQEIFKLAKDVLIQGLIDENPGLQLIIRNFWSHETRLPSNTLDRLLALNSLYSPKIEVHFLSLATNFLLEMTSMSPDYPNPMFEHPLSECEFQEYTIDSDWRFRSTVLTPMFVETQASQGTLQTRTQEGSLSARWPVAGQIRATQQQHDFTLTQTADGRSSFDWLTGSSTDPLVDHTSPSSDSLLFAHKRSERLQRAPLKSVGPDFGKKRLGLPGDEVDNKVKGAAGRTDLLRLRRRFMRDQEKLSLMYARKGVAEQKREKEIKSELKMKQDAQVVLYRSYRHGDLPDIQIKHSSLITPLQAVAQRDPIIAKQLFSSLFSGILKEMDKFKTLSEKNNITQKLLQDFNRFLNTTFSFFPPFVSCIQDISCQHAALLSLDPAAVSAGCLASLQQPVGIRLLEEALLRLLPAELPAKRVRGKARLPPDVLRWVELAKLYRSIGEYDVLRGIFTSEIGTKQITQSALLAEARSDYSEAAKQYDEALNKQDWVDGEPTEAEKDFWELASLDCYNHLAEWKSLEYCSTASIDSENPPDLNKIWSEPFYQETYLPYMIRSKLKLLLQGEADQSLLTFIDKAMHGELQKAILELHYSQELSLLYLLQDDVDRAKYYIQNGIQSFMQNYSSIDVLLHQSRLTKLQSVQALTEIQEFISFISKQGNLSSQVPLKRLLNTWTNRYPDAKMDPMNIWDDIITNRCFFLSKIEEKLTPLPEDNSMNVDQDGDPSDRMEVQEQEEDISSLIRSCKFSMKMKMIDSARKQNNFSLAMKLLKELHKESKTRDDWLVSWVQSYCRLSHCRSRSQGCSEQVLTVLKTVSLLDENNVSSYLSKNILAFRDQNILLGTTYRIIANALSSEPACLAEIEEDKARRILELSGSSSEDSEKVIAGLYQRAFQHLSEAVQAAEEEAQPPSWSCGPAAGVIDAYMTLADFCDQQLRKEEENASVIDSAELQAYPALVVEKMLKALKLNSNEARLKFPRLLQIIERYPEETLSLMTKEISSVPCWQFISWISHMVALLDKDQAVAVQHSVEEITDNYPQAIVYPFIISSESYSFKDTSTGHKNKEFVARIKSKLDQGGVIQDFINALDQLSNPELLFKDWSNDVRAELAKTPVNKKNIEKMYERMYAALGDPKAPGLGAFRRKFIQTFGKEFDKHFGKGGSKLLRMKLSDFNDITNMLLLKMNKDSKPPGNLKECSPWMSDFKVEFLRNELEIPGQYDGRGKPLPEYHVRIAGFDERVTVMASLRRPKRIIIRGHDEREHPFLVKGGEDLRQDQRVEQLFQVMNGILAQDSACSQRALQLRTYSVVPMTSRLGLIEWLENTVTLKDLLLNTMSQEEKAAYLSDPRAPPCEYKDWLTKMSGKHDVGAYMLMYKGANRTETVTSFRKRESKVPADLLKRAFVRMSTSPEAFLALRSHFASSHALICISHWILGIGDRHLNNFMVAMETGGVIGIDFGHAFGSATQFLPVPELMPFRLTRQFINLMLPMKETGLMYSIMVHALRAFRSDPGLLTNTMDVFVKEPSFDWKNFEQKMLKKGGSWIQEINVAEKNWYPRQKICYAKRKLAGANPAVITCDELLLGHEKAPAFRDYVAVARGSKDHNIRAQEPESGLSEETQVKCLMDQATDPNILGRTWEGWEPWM

## CC(C)NC(=O)N(C)c1cnc2ccc(-c3ccc(OCCCN4CCCCC4)nc3)cc2n1
HCT-116 [1]
  IC50: 1.69 nM
HCT-116 [2]
  Activity: 14.2%
HCT-116 [3]
  Activity: 49.9%
[4]
  Activity: Toxic
SW-620 [5]
  IC50: > 9000 nM
[6]
  Vd: 5.93 L/kg
HCT-116 [7]
  inhibition at 0.01 µM: 94.1%
HCT-116 [8]
  Activity: 12.6%
[9]
  IC50: 1.15 nM
SW-620 [10]
  inhibition in vivo at 20 mg/kg: 77.2%
[11]
  AUCt: 13952.23 ng·h/mL
HCT-116 [12]
  Activity: 2.39%
HCT-116 [13]
  Activity: 51.3%
HCT-116 [14]
  Activity: Active
[15]
  clearance: 13 mL/min/kg
HCT-116 [16]
  Activity: Active
HCT-116 [17]
  Activity: 13%
[18]
  t1/2: 5.29 h
[19]
  IC50: 420 nM
MCF7 [20]
  fold change (FC): 15
HCT-116 [21]
  Activity: 0.92%
[22]
  inhibition: < 50%
HCT-116 [23]
  Activity: Active
[24]
  bioavailability: 107%
MCF7 [25]
  CI: <1
HCT-116 [26]
  Activity: 1.73%
HCT-116 [27]
  Activity: 33.1%
[28]
  CLH: 1.8 mL/min/g
[29]
  Papp A→B: 1.02 ×10⁻⁶ cm/s
HCT-116 [30]
  Activity: 35.2%
[31]
  Cmax: 10200 ng/mL
HCT-116 [32]
  Activity: 55.7%
HCT-116 [33]
  Activity: 18.1%
HCT-116 [34]
  Activity: 30.4%
